These results are taken from PMC8333425, “Discovery of a dual Ras and ARF6 inhibitor from a GPCR endocytosis screen” (Nature Communications, 2021).

The subject of the assay is Ras. Kind of assay: GST-Raf1-RBD pull-down of EGFR-mediated Ras activation. The format is cell-based, human. The following applies: for Ras-GTP over total Ras, GST-Raf1-RBD pull-down, EGFR: Comp 21 50 μM, individual experiments. The source says: Since 21 inhibited both ERK1/2 and Akt activation by GPCRs and EGFR, we looked at a common target involved in both pathways. The small G protein Ras is an upstream regulator of both Ras-RAF-MEK-ERK and PI3K/Akt signaling pathways[35],[36]. Therefore, we explored 21’s ability to inhibit Ras activity using GST-Raf1-Ras-binding domain (RBD) in a pull-down assay. A reduction of 60% in GTP-bound Ras was noticed in pulled-down from cells treated with 21 and stimulated with either AT1R or EGFR, as compared to vehicle-treated cells (Fig. 4a, b). Complementary to this in vitro assay, we generated a Ras BRET assay, using the Raf-Ras binding domain tagged with RlucII (Raf1-RBD-RlucII) and the rGFP at the PM (rGFP-CAAX) (Supplementary Fig. 3c), to assess 21’s effects on Ras activation kinetics. […] Overexpression of either the active form of Ras (G12V) or SOS1 anchored at the PM (SOS-CAAX) produced a robust basal BRET signal that was no longer modulated by receptor activation (Supplementary Fig. 3d). […] 21’s potency to inhibit ARF6 and Ras is also consistent with its relative efficacy for inhibiting AT1R internalization and MAPK, respectively, when used at 50 μM (e.g., around 7 and 70 times the respective IC50s) (Figs. 2e and 3a). We also assessed if 21 was acting as a pan small G protein inhibitor by testing its effect on Rho and Rac/Cdc42. […] To assess Rac/Cdc42 activity, we generated a Rac/Cdc42 BRET sensor that consisted of the PAK-CRIB domain fused to RlucII (PAK-CRIB-RlucII) and the rGFP-CAAX (Supplementary Fig. 3e). PAK-CRIB, which binds to active Rac/Cdc42, was recruited to the PM upon AngII stimulation of cells and generated a robust BRET signal, which was blocked by the overexpression of the DN Rac1-T17N. Overexpression of the constitutively active Rac1-Q61L increased the basal BRET, which was no longer modulated by AT1R stimulation (Supplementary Fig. 3f).
Activation of ARF1, ARF6, Ras, and Rho were assessed by using GST pull-down assays. […] ImageLab 5.2 software was used to quantify the digital blots as fold of the amount of pulled down protein over total protein. […]

“And” between values parts separate entries of the source, which are not always exact repeats. Equal values may be shown once.

As for `CC(C)C(=O)N1CCN(c2ccc(NC(=O)c3cc4ccccc4o3)cc2Cl)CC1` [Compound 21], the “reduction in GTP-bound Ras, EGFR-stimulated cells (pull-down)” value (50 μM, compared to vehicle-treated cells) stood at 60%. Further, the “Ras-GTP over total Ras, GST-Raf1-RBD pull-down, EGFR” value reads like this: (Ctrl (no EGF)) 0.1945 and 0.09698 and 0.1503; (EGF) 1.319 and 0.978 and 0.8185.
